Laboratory results reported in patent US20220062440A1, “OLIGOMER-SELECTIVE FLUORESCENT INDICATOR DYES” (University of South Florida, priority 2018, published 2022).
Entries after “also recorded” stand apart in the source; their conditions may differ. Like-named read-outs stand apart in the source and are kept apart here.

What was measured:
[1] = tested on: amyloid aggregates (gO/CF and RF); details: cited from earlier work; for Response to gO/CF vs. RF aggregates (selectivity): literature / background statement
[2] = target: T1, hen egg-white lysozyme (hewL) amyloid aggregates: gO/CFs vs. RFs (Gallus gallus, UniProt P00698); assay: Kinetic dye screening assay: dye fluorescence response during sigmoidal vs. biphasic amyloid assembly, ThT as reference; format: binding; details: for Oligomer (gO/CF) selectivity over fibrils: hewL amyloid assembly, sigmoidal vs. biphasic kinetics; for Fluorescence response to initial gO/CF (oligomer) phase of biphasic growth / Fluorescence response to RF nucleation and growth: hewL, pH 2, 52° C.; for Fluorescence response to initial gO/CF (oligomer) phase of biphasic growth: above COC (biphasic regime); for Fluorescence response to RF nucleation and growth: second phase of biphasic growth or sigmoidal growth
T1 construct: hen egg-white lysozyme (hewL); from tissue
Description: A kinetic assay that clearly delineates growth conditions dominated by gO/CF or RF formation as simple function of protein concentration was developed. This kinetic assay was used in conjunction with high-resolution (AFM or TEM) imaging of aggregate morphologies to identify dyes that display well-defined selectivity of gO/CFs over RFs (FIGS. 1A-1E).
The basis of the kinetic assay is the existence of a “critical oligomer concentration” or COC, distinct from and higher than the protein concentration required for fibril growth [Tatiana Miti, et al. Biomacromolecules (2015) 16:326-335]. Using both hen-egg white lysozyme and a dimeric Aβ construct, it was shown that crossing this COC causes a sharp transition in ThT kinetics from the ubiquitous “sigmoidal” growth kinetics of nucleated polymerization to lag-free bimodal kinetics. The initial phase of bimodal growth is dominated by gO/CF formation while the secondary upswing indicates RF nucleation and growth [Filip Hasecke, et al. Chem. Sci. (2018) 9: 5937-5948]. When below this COC HEWL grows RFS aggregates with a distinct lag phase before the start of growth. Monitoring dye responses both below and above the COC allows rapid determination whether a given fluorescent dye responds only to the initial gO/CF or subsequent RF phase of amyloid growth.
Kinetic transition is an indicator of oligomer formation (Hasecke F. et al., Chem. Sci., 2018 9:5937-5948). The onset of gO/CF formation is delineated by a threshold protein concentration referred to herein as the “critical oligomer concentration” or COC. […] No populations of gO/CFs are observed. In contrast, gO/CF formation above the COC has no lag periods and results in biphasic kinetics (saturating gO/CF kinetics is superimposed to sigmodal RF kinetics). AFM confirms that the initial phase represents gO/CF formation while the second phase indicates RF nucleation and growth. Using this transition from sigmoidal to biphasic kinetics provides an efficient assay for screening dyes for their response to these distinct aggregate species.
Instead of requiring isolation and stabilization of amyloid oligomers, the dye screening protocol proposed here takes the identification of two distinct amyloid assembly regimes with distinctly different assembly kinetics (see FIG. 6 and Hasecke, F., et al. Chemical Science, 2018. 9:5937-5948). […] Following the initial lag phase, this regime yields pure populations of “traditional” rigid fibrils (RFs). It lacks any detectable populations of metastable globular oligomers (gOs) or curvilinear fibrils (CFs) during any stage of fibril assembly. Upon crossing a threshold protein (or salt) concentration a second, oligomer-dominated regime emerges. This regime is characterized by lag-free formation of readily detectable populations of gOs and CFs during its initial phase, with RFs emerging in a second growth phase. The transition to this regime is characterized by a concurrent switch in ThT-monitored assembly kinetics from sigmoidal to biphasic kinetics (Hasecke, F., et al. Chemical Science, 2018. 9:5937-5948; Miti, T., et al. Biomacromolecules, 2015. 16:326-335; Foley, J., et al. J Chem Phys., 2013. 139:121901; Hill, S. E., et al. PLoS ONE, 2011. 6:e18171). Monitoring fluorescence responses of dyes to amyloid assembly under either sigmoidal or biphasic growth conditions provides a direct and straight-forward readout for their selectivity to oligomer over fibril formation.
Using the above transition in the model amyloid hewL a small subset of about one dozen dyes were screened for oligomer-selective responses. Oligomer-free sigmoidal kinetics provided the read-out for dye responses to pure fibril formation—relative to the ThT response recorded under the same conditions. Responsiveness of dyes to gO/CF formation was evaluated during the initial gO/CF phase of biphasic kinetics, as long as it was well separated from the second RF-related upswing. […]

[3] = target: T2, hen egg-white lysozyme (hewL) amyloid aggregates (Gallus gallus, UniProt P00698); assay: AFM imaging of hewL aggregate morphologies during biphasic growth in the presence of dye; details: 5 mg/ml hewL, pH 2, 52° C., CV 5 μM, listed as CV
T2 construct: hen egg-white lysozyme (hewL); from tissue
Description: FIG. 8B contains AFM images from aliquots taken during biphasic amyloid growth in FIG. 8A from the CV wells at the indicated time points. […] This kinetic assay was used in conjunction with high-resolution (AFM or TEM) imaging of aggregate morphologies to identify dyes that display well-defined selectivity of gO/CFs over RFs (FIGS. 1A-1E). Using the above transition in the model amyloid hewL a small subset of about one dozen dyes were screened for oligomer-selective responses. Oligomer-free sigmoidal kinetics provided the read-out for dye responses to pure fibril formation—relative to the ThT response recorded under the same conditions. Responsiveness of dyes to gO/CF formation was evaluated during the initial gO/CF phase of biphasic kinetics, as long as it was well separated from the second RF-related upswing. Even this very limited and fairly arbitrary set of dyes yielded three different dyes with a modest level of oligomer-specific responses (FIG. 7). While encouraging, the level of oligomer selectivity, the overall fluorescence change upon either fibril or oligomer formation, or the rapid bleaching of the dyes under these growth conditions didn't warrant further investigation. […] It confirms that the progression of hewL aggregates during biphasic growth is not altered by the presence of CV.

T1 sequence (P00698 19-147): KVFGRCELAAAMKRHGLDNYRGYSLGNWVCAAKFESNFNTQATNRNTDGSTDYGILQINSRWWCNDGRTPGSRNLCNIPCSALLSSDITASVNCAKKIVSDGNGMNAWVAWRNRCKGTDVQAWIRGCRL
T2 sequence (P00698 19-147): as above

For `Nc1c(/N=N/c2ccc(-c3ccc(/N=N/c4cc(S(=O)(=O)O)c5ccccc5c4N)cc3)cc2)cc(S(=O)(=O)O)c2ccccc12` [congo red], the “Response to gO/CF vs. RF aggregates (selectivity)” value (from here on “Response … (selectivity)”) [1] is listed as “preferentially respond to late stage RFs instead of gOs and CFs”.

In the case of `CN(C)c1ccc(C(=C2C=CC(=[N+](C)C)C=C2)c2ccc(N(C)C)cc2)cc1` [crystal violet, tris(4-(dimethylamino)phenyl)methylium chloride], the “Oligomer (gO/CF) selectivity over fibrils” value (“Oligomer (gO/CF) selectivity” for short) [2] is reported as “oligomer-selective dye and noticeable oligomer selectivity and OSD and preferentially enhanced upon binding to gO/CFs”, the “Fluorescence response to initial gO/CF (oligomer) phase of biphasic growth” value (shortened to “Fluorescence response to initial gO/CF”) [2] is reported as “responds nearly exclusively to the initial (oligomer) phase; also recorded: identical response to amyloid growth prior to the onset of RF formation” and the “Fluorescence response to initial gO/CF” value ([2]; listed as CV) is reported as “robust response to the initial gO/CF dominated phase”. For the same compound, the “Fluorescence response to initial gO/CF” value ([2]; listed as Crystal violet) was “closely match the kinetics of the initial gO/CF phase in ThT kinetics”, the “Fluorescence response to RF nucleation and growth” value [2] was “weak fibril response; also recorded: little or no response to the onset of RF formation; also recorded: level off” and the “Fluorescence response to RF nucleation and growth” value ([2]; listed as CV) was “lacks the upswing to subsequent RF nucleation and growth; also recorded: weak response to RF formation”. The “Fluorescence response to RF nucleation and growth” value ([2]; listed as Crystal violet) was “very weak responses upon the onset of RF formation”, the “Temporal correlation of dye signal with ThT signal” value ([2]; sigmoidal and initial phase of biphasic growth of hewL) was “one-to-one temporal correlation” and the Amyloid staining ([1]; literature (Cooper 1969)) was “weak metachromatic amyloid stain”. For the same compound, the “Effect of dye on aggregate types / progression of aggregates (AFM)” value [3] was “not altered; also recorded: did not alter the types of aggregates observed”.

In the case of `Cc1ccc2c(c1)sc(-c1ccc(N(C)C)cc1)[n+]2C.[Cl-]` [ThT, reference compound], the “Fluorescence response to initial gO/CF” value [2] is listed as “robust response to the initial gO/CF dominated phase; also recorded: expected biphasic behavior as the sample grows gO/CFs up to a first plateau; also recorded: weak biphasic response; also recorded: identical response to amyloid growth prior to the onset of RF formation”, the “Fluorescence response to RF nucleation and growth” value [2] is listed as “readily picked up; also recorded: second upswing and plateau indicating the onset of RF nucleation and growth; also recorded: continues to rise following RF nucleation” and the “Response … (selectivity)” value [1] is listed as “responds to both gO/CF and RF aggregates, albeit with different sensitivities; also recorded: highly skewed towards late-stage amyloid fibrils”. For the same compound, the “Response … (selectivity)” value ([1]; listed as Thioflavin T) was “considerably less enhanced by gO/CF vs. RF formation” and the “Response … (selectivity)” value ([1]; listed as thioflavin T) was “preferentially respond to late stage RFs instead of gOs and CFs”.

For `N#CC(C#N)=Cc1ccc(-c2ccc(-c3ccc(O)cc3)s2)s1` [NIAD-4], the “Response … (selectivity)” value [1] is listed as “preferentially respond to late stage RFs instead of gOs and CFs”.

With methyl violet the “Oligomer (gO/CF) selectivity” value [2] was “noticeable oligomer selectivity”.

In the case of `N#CC(C#N)=Cc1cc2c3c(c1)CCCN3CCC2` [DCVJ, 9-(Dicyanovinyl) Julolidine], the “Response … (selectivity)” value [1] is listed as “some oligomer selectivity”.

In the case of `CN(C)c1ccc2cc3ccc(N(C)C)cc3nc2c1` [acridine orange, reference compound], the “Oligomer (gO/CF) selectivity” value [2] is reported as “(weak) select responses to oligomer-dominated phase”.

With `O=C(O)c1cc(/C=C/c2ccc(/C=C/c3ccc(O)c(C(=O)O)c3)cc2)ccc1O` [X-34, reference compound] the “Oligomer (gO/CF) selectivity” value [2] was “(weak) select responses to oligomer-dominated phase”.

For `CC1=C/C(=C(\c2ccc(N)c(S(=O)(=O)[O-])c2)c2ccc(N)c(S(=O)(=O)O)c2)C=C(S(=O)(=O)[O-])C1=N.[Na+].[Na+]` [acid fuchsin, reference compound], the “Oligomer (gO/CF) selectivity” value [2] was “(weak) select responses to oligomer-dominated phase”.
